# Measurements reported in patent publication US10485785B2, “Method for producing fine powder and the fine powder produced by the same” (Moriroku Chemicals Company, Ltd., priority 2012, dated 2019).
# Experiments:
# Assay type in all cases: physicochemical
# [1] = observation by scanning electron microscope (SEM); settings: pulverized by the LN2 bead mill, SEM FIG. 2(B)
# Text: The exterior appearance of pulverized particles on which platinum is deposited was observed by a scanning electron microscope (JSM-6060, JEOL LTD.).
# [2] = particle size distribution by laser diffraction (dry and wet method)
# Method: The pulverized particles were dispersed by compressed air (0.4 MPa) and then, the dry particle size distribution was measured by a laser diffraction apparatus for measuring particle size distribution (LMS-30, SEISHIN ENTERPRISE CO., LTD.). On the other hand, the pulverized particles were dispersed in purified water by ultrasonic dispersion (30 seconds) and then, the wet particle size distribution was measured by a laser diffraction apparatus for measuring particle size distribution (SALD-2100, SHIMADZU CORPORATION). (3) Crystalline Properties The crystalline states of the bulk powder and the pulverized particles were measured by a X-ray powder diffraction apparatus (RAD-2VC, Rigaku Corporation) and a differential scanning calorimeters (DSC-60, SHIMADZU CORPORATION). […] As stated above, the dry method particle size distribution was measured by the laser diffraction scattering method (Dry method), while the wet method particle size distribution was measured by the laser diffraction method (Wet method). FIG. 32 represents the particle distribution of the bulk powder of phenytoin (OriB), the particle distribution of the phenytoin (Jet) pulverized by the dry method jet mill, and the particle distribution of the phenytoin (LN2) pulverized by the ultra low temperature medium grinding apparatus (LN2 bead mill) according to the present invention, wherein all the particle distributions were the results measured by the aforementioned dry method (Dry method). FIG. 33 represents the particle distribution of the bulk powder of phenytoin (OriB), the particle distribution of the phenytoin (Jet) pulverized by the dry method jet mill, and the particle distribution of the phenytoin (LN2) pulverized by the ultra low temperature medium grinding apparatus (LN2 bead mill) according to the present invention, wherein all the particle distribution were the results measured by the aforementioned wet method (Wet method). […]
# [3] = crystalline properties by powder X-ray diffractometry and differential scanning calorimetry
# Method: The pulverized particles were dispersed by compressed air (0.4 MPa) and then, the dry particle size distribution was measured by a laser diffraction apparatus for measuring particle size distribution (LMS-30, SEISHIN ENTERPRISE CO., LTD.). On the other hand, the pulverized particles were dispersed in purified water by ultrasonic dispersion (30 seconds) and then, the wet particle size distribution was measured by a laser diffraction apparatus for measuring particle size distribution (SALD-2100, SHIMADZU CORPORATION). (3) Crystalline Properties The crystalline states of the bulk powder and the pulverized particles were measured by a X-ray powder diffraction apparatus (RAD-2VC, Rigaku Corporation) and a differential scanning calorimeters (DSC-60, SHIMADZU CORPORATION). […] FIG. 34 represents the results of powder X-ray diffractometry (XRPD) of the original bulk of phenytoin (OriB), the phenytoin (Jet) pulverized by the dry method jet mill, and the phenytoin (LN2) pulverized by the ultra low temperature medium grinding apparatus (LN2 bead mill) according to the present invention, which were measured by a powder X-ray diffractometry device (RAD-2VC, Rigaku Corporation). […]
# [4] = dissolution test, pharmacopoeia second law (paddle method); settings: 66.7 mg sample suspended in water with 0.1%(w/v) Tween80, 900 mL test liquid, 75 rpm
# Method: In order to verify the degree of improvement of solubility of the concurrently pulverized materials, which was obtained by concurrently pulverizing the test compound (phenytoin) made by example 5 and the additive (Hypromellose-Acetate-Succinate (HPMCAS)), the dissolution test was carried out as follows. […] Then the suspension was put into a 900 mL test liquid (50 Mm phosphate buffer solution, pH6.8) and examined under the condition of 75 rpm in compliance with the pharmacopoeia second law (paddle method). A sample consisting of only a compound (phenytoin) to be pulverized was individually pulverized under the conditions shown in Example 5 to obtain a pulverized material, which was used to carry out the dissolution test as follows. A 66.7 mg sample of the pulverized material was suspended in the water, which contains a 0.1%(w/v) Tween80, to obtain a suspension. Then the suspension was put into the 900 mL test liquid and examined under the condition of 75 rpm in compliance with the pharmacopoeia second law (paddle method). […] Before the dissolution test of reference example 1 was carried out, the pulverized material prepared in reference example 1 was mixed with commercially available additives (lactose and L-HPC) in a vessel by hand. Then, the dissolution test was performed as for a mixture of the pulverized material and the additives.
structure (smiles),measurement,setting,value
O=C1NC(=O)C(c2ccccc2)(c2ccccc2)N1 [phenytoin],dimension of the majority of the particles,[1],≤ 1 μm
"O=C1NC(=O)C(c2ccccc2)(c2ccccc2)N1 [phenytoin (LN2), phenytoin]",rate of submicron size particles relative to particles pulverized by the dry method,[2],three and a half times
same,percentage of the mass consisting of particles of 1 μm or below (rate of submicron size particles),[2]; measured up to,up to 32%
same,crystalline transformation / crystalline descent,"[3]; XRPD and DSC, before and after pulverization",crystalline descent was not found
"O=C1NC(=O)C(c2ccccc2)(c2ccccc2)N1 [Reference example 1, phenytoin]",solubility of the pulverized particles in dissolution test,[4],"not improved, or rather became worse"
same,particle diameter after individual pulverization,[2]; conditions of Example 5,≤ 0.1 μm
"O=C1NC(=O)C(c2ccccc2)(c2ccccc2)N1 [phenytoin (Jet), phenytoin]",degree of crystallinity,"[3]; from ΔH value versus original bulk, DSC",81%
